Results reported in US10894807B2 (Siemens Medical Solutions USA, Inc., priority 2011, dated 2021).

Biological target: human PSMA (Homo sapiens (Human), UniProt Q04609)
Assay: Enzymatic assay for in vitro evaluation of PSMA inhibitors (fluorescent assay of PSMA activity, NAAG substrate, OPA detection of glutamate)
Assay type: biochemical

Sequence of human PSMA (Q04609 whole entry): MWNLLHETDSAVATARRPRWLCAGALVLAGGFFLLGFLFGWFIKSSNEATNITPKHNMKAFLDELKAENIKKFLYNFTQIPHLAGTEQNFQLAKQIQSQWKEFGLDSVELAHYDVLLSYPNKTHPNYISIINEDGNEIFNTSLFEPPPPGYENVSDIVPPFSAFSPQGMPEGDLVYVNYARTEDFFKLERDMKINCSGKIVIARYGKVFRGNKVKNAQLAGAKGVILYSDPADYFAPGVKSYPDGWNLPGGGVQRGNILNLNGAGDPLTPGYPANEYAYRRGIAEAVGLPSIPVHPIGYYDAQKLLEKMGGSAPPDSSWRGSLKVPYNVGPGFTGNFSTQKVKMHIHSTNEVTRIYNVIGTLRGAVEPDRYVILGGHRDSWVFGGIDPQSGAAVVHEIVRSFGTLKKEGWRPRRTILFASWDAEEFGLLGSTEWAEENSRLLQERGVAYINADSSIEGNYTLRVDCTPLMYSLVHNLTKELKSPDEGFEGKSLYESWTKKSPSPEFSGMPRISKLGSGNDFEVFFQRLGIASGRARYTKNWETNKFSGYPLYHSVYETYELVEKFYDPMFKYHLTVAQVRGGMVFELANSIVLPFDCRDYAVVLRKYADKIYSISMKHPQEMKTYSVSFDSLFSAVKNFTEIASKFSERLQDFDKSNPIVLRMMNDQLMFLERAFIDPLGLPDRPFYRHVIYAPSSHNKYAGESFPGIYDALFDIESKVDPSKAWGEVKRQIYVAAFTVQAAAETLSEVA

| Compound | Ki [nM] | PSMA Blkg % (1.0 μM) [%] |
| --- | --- | --- |
| O=C(O)CC[C@H](NC(=O)C[C@@H](NC(=O)CCNC(=O)OCc1ccccc1)C(=O)O)C(=O)O [P239, (9R,13S)-3,7,11-Trioxo-1-phenyl-2-oxa-4,8,12-triazapentadecane-9,13,15-tricarboxylic Acid] |  | 33 |
| O=C(O)CC[C@H](NC(=O)N[C@@H](Cc1ccc(Nc2nc(-c3ccc(-n4cc(CCCF)nn4)cc3)cs2)cc1)C(=O)O)C(=O)O [P240] | 28 | 94 |
| O=C(O)CC[C@H](NC(=O)C[C@@H](NC(=O)CCNC(=O)Cn1cc(CCCF)nn1)C(=O)O)C(=O)O [P243, (S)-2-((R)-3-Carboxy-3-(3-(2-(4-(3-fluoropropyl)-1H-1,2,3-triazol-1-yl)acetamido)propanamido)-propanamido)pentanedioic Acid] |  | 5 |
| O=C(O)CC[C@H](NC(=O)N[C@@H](CCCCNc1nc(-c2cccc(NC(=O)Cn3cc(CCCF)nn3)c2)cs1)C(=O)O)C(=O)O [P244, (S)-2-(3-((S)-1-Carboxy-5-(4-(3-(2-(4-(3-fluoropropyl)-1H-1,2,3-triazol-1-yl)acetamido)phenyl)thiazol-2-ylamino)pentyl)ureido)pentanedioic Acid] | 0.38 | 98 |
| O=C(O)CC[C@H](NC(=O)C[C@@H](NC(=O)CCNC(=O)c1ccc(-n2cc(CCCF)nn2)cc1)C(=O)O)C(=O)O [P245, (S)-2-((R)-3-Carboxy-3-(3-(4-(4-(3-fluoropropyl)-1H-1,2,3-triazol-1-yl)benzamido)propanamido)-propanamido)pentanedioic Acid] | 156 | 62 |
| O=C(O)CC[C@H](NC(=O)N[C@@H](CCCCn1c(=O)[nH]c2ccc(OCc3cn(CCF)nn3)cc21)C(=O)O)C(=O)O [P247, (S)-2-(3-((S)-1-Carboxy-5-(6-((1-(2-fluoroethyl)-1H-1,2,3-triazol-4-yl)methoxy)-2-oxo-2,3-dihydro-1H-benzo[d]imidazol-1-yl)pentyl)ureido)pentanedioic Acid] | 0.63 | 100 |

Other lines, results leading:

| Ki [nM] | PSMA Blkg % (1.0 μM) [%] | Compound |
| --- | --- | --- |
| < 0.3 | 100 | O=C(O)CC[C@H](NC(=O)N[C@@H](Cc1ccc(NC(=O)c2cc(C(=O)Nc3ccc(C[C@H](NC(=O)N[C@@H](CCC(=O)O)C(=O)O)C(=O)O)cc3)cc(-n3cc(CCCF)nn3)c2)cc1)C(=O)O)C(=O)O [P238, (2S,2′S)-2,2′-(((((1S,1′S)-(((5-(4-(3-Fluoropropyl)-1H-1,2,3-triazol-1-yl)isophthaloyl)bis(azanediyl))bis(4,1-phenylene))bis(1-carboxyethane-2,1-diyl))bis(azanediyl))bis(carbonyl))bis(azanediyl))dipentanedioic Acid] |
| 0.38 | 94 | O=C(O)CC[C@H](NC(=O)N[C@@H](Cc1ccc(NC(=O)c2ccc(F)cc2)cc1)C(=O)O)C(=O)O [P241] |
| 0.07 | 99 | O=C(O)CC[C@H](NC(=O)N[C@@H](CCCCNc1cc(OCc2cn(CCF)nn2)ccc1[N+](=O)[O-])C(=O)O)C(=O)O [P242, (S)-2-(3-((S)-1-Carboxy-5-((5-((1-(2-fluoroethyl)-1H-1,2,3-triazol-4-yl)methoxy)-2-nitrophenyl)amino)pentyl)ureido)pentanedioic Acid] |
| 0.16 | 100 | O=C(O)CC[C@H](NC(=O)N[C@@H](CCCCNC(=O)c1cc(C(=O)NCCCC[C@H](NC(=O)N[C@@H](CCC(=O)O)C(=O)O)C(=O)O)cc(-n2cc(CCCF)nn2)c1)C(=O)O)C(=O)O [P246, (2S,2′S)-2,2′-(((((1S,1′S)-((5-(4-(3-Fluoropropyl)-1H-1,2,3-triazol-1-yl)isophthaloyl)bis(azanediyl))bis(1-carboxypentane-5,1-diyl))bis(azanediyl))bis(carbonyl))bis(azanediyl))dipentanedioic Acid] |
